Measurements from patent US9399625B2, “Acridone compounds” (Oregon Health & Science University, priority 2006, dated 2016).

System: CQ-sensitive P. falciparum D6
Assay: Fixed-ratio combination (isobologram) with quinine, D6
Assay type: cell-based
Settings: isobolar analysis
Procedure: In one embodiment, synergism is assessed herein using fixed-ratio combinations that provide information over a wide range of drug concentrations. In this method, the two drugs are mixed in an appropriate ratio, serial dilutions of the combined solution are used for testing, and results compared to each drug alone. Specifically, to determine synergy, the acridone is tested in combination with a second drug using a modification of the fixed-ratio method described by Fivelman et al. (See, Fivelman et al., Antimicrob. Agents Chemother. 48, 4097-4102 (2004) and Winter et al., Antimicrob. Agents Chemother. 41, 1449-1454 (1997), both references incorporated herein, in their entirety, by reference). […] If these stock solutions were termed Drug A and Drug B, then six final stock solutions were prepared from this initial stock: Drug A alone, Drug B alone, and volume:volume mixtures of Drug A and B in the following ratios: 4:1, 3:2, 2:3, and 1:4. Two-fold dilutions of each of the six final stock solutions were done robotically across a 96-well plate in quadruplicate. […] The data pointed from all six curves were then analyzed using Calcusyn software (commercially available from BioSoft, Cambridge, UK) for determination of synergy. Output from this analysis included FIC values used to plot isobolograms as well as a rigorously determined synergy index, termed the combination index (CI) (Calcusyn). […]

Question: `CCN(CC)CCOc1ccc2c(=O)c3ccc(Cl)cc3n(CCN(CC)CC)c2c1` [T3.5, 3-(2-diethylaminoethoxy)-6-chloro-10-(2-diethylaminoethyl)-9-acridone] was tested. Which interaction with quinine did it give?
Answer: synergism
